Patent US20230391868A1, “COMPOSITIONS FOR AND METHODS OF TREATING CANCER” (The George Washington University, priority 2022, published 2023)

How the values were obtained:
mouse SIRPα promoter = assay: SIRPα-luc reporter luciferase assay in A31A7 macrophages; format: cell-based; conditions: 10 μM of NextA; untreated transfected cells 32.2-fold (FIG. 2B)
Protocol: The mouse CD47 or SIRPα promoters were cloned into a promoterless pGL4.20[luc2/puro] vector using Genentech's cloning services (San Francisco, CA, USA). Vectors were transfected into SM1 and B16 melanoma cells using Lipofectamine 3000 (L3000008, ThermoFisher) and transfected cells were selected using puromycin. A31A7 macrophages were transiently transfected using jetOPTIMUS DNA transfection reagent (Polyplus, NY, USA). Luminescence was measured using the Luciferase Assay System (E4550, Promega) in a SpectraMax i3× Multi-Mode Microplate Reader (Molecular Devices).
To investigate whether HDAC6 controlled SIRPα expression at the transcriptional level, the mouse SIRPα promoter was cloned into a promoterless pGL4.20 [luc2/puro] vector to create a SIRPα-Luc reporter plasmid. e Nex, A31A7 macrophages were transiently transfected in the absence or presence of 10 μM of NextA and luminescence was evaluated. A31A7 cells were successfully transfected with the SIRPα-luciferase reporter vector as evidenced by a 32.2-fold increase in relative luminescence units (RLU) compared to untransfected cells (FIG. 2B).

THP1-derived macrophages = assay: M1/M2 marker gene expression in THP1-derived macrophages by qRT-PCR; format: cell-based, human
Protocol: (§1) Macrophages were polarized to M1-like phenotype using 50 ng/mL of interferon gamma (IFNγ, 575306, Biolegend) and 100 ng/mL of bacterial lipopolysaccharide (LPS, L2880, Sigma Aldrich, St. Louis, MO) for 24 hours. To polarize macrophages towards the M2-like phenotype, macrophages were stimulated with 20 ng/mL of IL-4 (214-14, PeproTech) and 20 ng/mL of IL-13 (575904, Biolegend). THP1 monocytes were treated with 5 ng/mL of phorbol 12-myristate 13-acetate (PMA) to induce differentiation into macrophages. Once converted to macrophages, media was replaced to remove PMA prior to treatment and/or polarization. Polarization towards M1 and M2 phenotypes was performed with respective recombinant human cytokines from PeproTech: 50 ng/mL of IFNγ (300-02), 20 ng/mL IL-4 (200-04), and 20 ng/mL IL-13 (200-13). 100 ng/mL LPS was also used to polarize toward the M1 phenotype. 3. In vivo Studies.
qRT-PCR: Total RNA was extracted from cells using the Trizol reagent according to manufacturer's instructions (ThermoFisher Scientific, 15596018). Samples were then processed immediately or stored at −80° C. RNA was quantified using a NanoDrop One Spectrophotometer (ThermoFisher Scientific). The 260/280 ratios were routinely over 1.8. Sample cDNA was produced using the iScript cDNA synthesis kit (Bio-Rad, 1708891). Target mRNA was quantified using MyIQ single-color real-time PCR detection system from Bio-Rad (Bio-Rad, Hercules, CA) and iQ SYBR green Supermix (Bio-Rad, 1708882). The following primers were synthesized by Invitrogen (Waltham, MA) with sequences designed by Origene (Rockville, MD): mouse R-actin (MP200232), mouse Nos2 (MP208933), mouse MRC1 (MP207800), human R-actin (HP204660), human IL-1β (HP200544), human MRC1 (HP206121), human NOS2 (HP200591), human CD209 (HP214086), mouse SIRPα (MP215450), mouse LRP1 (MP207604), human LRP1 (HP206040), mouse MFGE8 (MP208190), human MFGE8 (HP225757), mouse CD36 (MP201923), human CD36 (HP200058), and mouse CD47 (MP201932). Primers for mouse ARG-1 (PPM31770C) and human SIRPα (QT01031051) were purchased from Qiagen (Hilden, Germany). Human CD47 primer sequences were obtained from Sudo T, et al and are 5′-[…]-3′ (sense) (SEQ ID NO:01) and 5′-[…]-3′ (antisense) (SEQ ID NO:02) (Sudo T, et al. (2017) Oncol. Lett. 14:801-809). Human CD86 primer sequences are 5′-[…]-3′ (sense) (SEQ ID NO:03) and 5′-[…]-3′ (antisense) (SEQ ID NO:04). Mouse CD80 sequences are 5′-[…]-3′ (sense) (SEQ ID NO:05) and 5′-[…]-3′ (antisense) (SEQ ID NO:06). Cycling conditions were set as per manufacturer's instructions. Single product amplification was confirmed by melting curve analysis. Quantification is expressed in arbitrary units and target mRNA levels were normalized to R-actin expression. […]

B16 melanoma cells = assay: Cd47 mRNA upon IFNγ stimulation in B16 cells; format: cell-based, mouse; conditions: IFNγ for 12 hours
Protocol: qRT-PCR: Total RNA was extracted from cells using the Trizol reagent according to manufacturer's instructions (ThermoFisher Scientific, 15596018). Samples were then processed immediately or stored at −80° C. RNA was quantified using a NanoDrop One Spectrophotometer (ThermoFisher Scientific). The 260/280 ratios were routinely over 1.8. Sample cDNA was produced using the iScript cDNA synthesis kit (Bio-Rad, 1708891). Target mRNA was quantified using MyIQ single-color real-time PCR detection system from Bio-Rad (Bio-Rad, Hercules, CA) and iQ SYBR green Supermix (Bio-Rad, 1708882). The following primers were synthesized by Invitrogen (Waltham, MA) with sequences designed by Origene (Rockville, MD): mouse R-actin (MP200232), mouse Nos2 (MP208933), mouse MRC1 (MP207800), human R-actin (HP204660), human IL-1β (HP200544), human MRC1 (HP206121), human NOS2 (HP200591), human CD209 (HP214086), mouse SIRPα (MP215450), mouse LRP1 (MP207604), human LRP1 (HP206040), mouse MFGE8 (MP208190), human MFGE8 (HP225757), mouse CD36 (MP201923), human CD36 (HP200058), and mouse CD47 (MP201932). Primers for mouse ARG-1 (PPM31770C) and human SIRPα (QT01031051) were purchased from Qiagen (Hilden, Germany). […] Quantification is expressed in arbitrary units and target mRNA levels were normalized to R-actin expression.
Although the mechanism by which IFNγ drives CD47 upregulation is unclear, IFNγ expression correlates to CD47 expression in skin cutaneous melanoma (Ye Z H, et al. (2021) Transl. Oncol. 14:101162). The kinetics of Cd47 mRNA in SM1 and B16 cells upon IFNγ stimulation (100 ng/mL) were evaluated and these mouse melanoma models were determined to have different kinetics (FIG. 9A-FIG. 9B). It was determined that 12 hours was a time point for both models to sustain the IFNγ-mediated upregulation. In FIG. 9B, the role of HDAC6 inhibitors NextA and Tubastatin A in abrogating Cd47 upregulation upon stimulation with IFNγ for 12 hours was evaluated.

[1] = tested on: A31A7 macrophages and BMDMs; assay: Macrophage M1/M2 marker gene expression by qRT-PCR; format: cell-based, mouse
Protocol: Bone marrow-derived macrophages were isolated from the femurs and tibias of wild-type C57/Bl6, HDAC6 knockout (C57BL/6J-Hdac6em2Lutzy/J, 029318, Jackson Laboratory), or UBC-GFP (C57BL/6-Tg(UBC-GFP)30Scha/J, 004353, Jackson Laboratory). Isolated bone marrow cells were cultured in RPMI 1640 complete medium with 10% FBS, 1% NEAA, and 1% penicillin-streptomycin in 5% CO2 at 37° C. Medium was supplemented with murine recombinant M-CSF (20 ng/mL, 576404, Biolegend) to differentiate monocytes into macrophages. Three days after bone marrow isolation, undifferentiated and floating cells were washed with PBS and replaced with fresh RPMI media. […]
as §1
qRT-PCR: Total RNA was extracted from cells using the Trizol reagent according to manufacturer's instructions (ThermoFisher Scientific, 15596018). Samples were then processed immediately or stored at −80° C. RNA was quantified using a NanoDrop One Spectrophotometer (ThermoFisher Scientific). The 260/280 ratios were routinely over 1.8. Sample cDNA was produced using the iScript cDNA synthesis kit (Bio-Rad, 1708891). Target mRNA was quantified using MyIQ single-color real-time PCR detection system from Bio-Rad (Bio-Rad, Hercules, CA) and iQ SYBR green Supermix (Bio-Rad, 1708882). The following primers were synthesized by Invitrogen (Waltham, MA) with sequences designed by Origene (Rockville, MD): mouse R-actin (MP200232), mouse Nos2 (MP208933), mouse MRC1 (MP207800), human R-actin (HP204660), human IL-1β (HP200544), human MRC1 (HP206121), human NOS2 (HP200591), human CD209 (HP214086), mouse SIRPα (MP215450), mouse LRP1 (MP207604), human LRP1 (HP206040), mouse MFGE8 (MP208190), human MFGE8 (HP225757), mouse CD36 (MP201923), human CD36 (HP200058), and mouse CD47 (MP201932). Primers for mouse ARG-1 (PPM31770C) and human SIRPα (QT01031051) were purchased from Qiagen (Hilden, Germany). Human CD47 primer sequences were obtained from Sudo T, et al and are 5′-[…]-3′ (sense) (SEQ ID NO:01) and 5′-[…]-3′ (antisense) (SEQ ID NO:02) (Sudo T, et al. (2017) Oncol. Lett. 14:801-809). Human CD86 primer sequences are 5′-[…]-3′ (sense) (SEQ ID NO:03) and 5′-[…]-3′ (antisense) (SEQ ID NO:04). Mouse CD80 sequences are 5′-[…]-3′ (sense) (SEQ ID NO:05) and 5′-[…]-3′ (antisense) (SEQ ID NO:06). Cycling conditions were set as per manufacturer's instructions. Single product amplification was confirmed by melting curve analysis. Quantification is expressed in arbitrary units and target mRNA levels were normalized to R-actin expression.

## CCCCN(Cc1ccc(C(=O)NO)cc1)C(=O)Nc1ccccc1 [NextA, Nexturastat A]
Mouse SIRPα promoter
  increase in relative luminescence units (RLU) compared to untransfected cells: 7.7 fold
THP1-derived macrophages; THP1-derived M1 macrophages, 5 μM NextA (FIG. 1H)
  M1-associated markers NOS2, CD86, and IL1B: either unaffected or significantly upregulated
THP1-derived macrophages; THP1-derived M2 macrophages, 5 μM NextA (FIG. 1I)
  expression of M2-associated markers CD206 and CD209 at the transcriptional level: significantly downregulated
B16 melanoma cells
  IFNγ-driven Cd47 upregulation at the transcriptional level: repressed these effects
[1]; A31A7, 5 μM of NextA
  phenotypic changes in both macrophage polarizations: elicited observable phenotypic changes
[1]; A31A7, different concentrations of NextA, qRT-PCR (FIG. 7B)
  expression of Cd80 in M1 polarized macrophages: concentration-dependent effect
[1]; A31A7, different concentrations of NextA, qRT-PCR (FIG. 7C)
  expression of Arg1 in M2 polarized macrophages: concentration-dependent effect
[1]; A31A7 and BMDMs polarized to M1 or M1(IFNγ), 5 μM (FIG. 1A)
  Nos2 and Cd80 at the transcriptional level: tended to significantly upregulate
[1]; A31A7 cells and BMDMs, M2, qRT-PCR, 5 μM (FIG. 1C)
  expression of M2-associated markers Arg1 and Mrc1: significantly downregulated
